Consider 7 compounds from paper PMC4709452 (Frontiers in Pharmacology, 2016).

Assay [1] relates to anesthetized rats. Briefly: Basal cardiovascular parameters in anesthetized, pre-treated rats. The format is in vivo, rat. The settings on record: 15 min after i.v. bolus (enalaprilat 0.1 mg/kg, Plummer's inhibitor 0.75 mg/kg, icatibant 10 μg/kg, B-9858 20 μg/kg), means ± SEM. An excerpt:
(§1) The femoral arterial catheter implanted to monitor direct blood pressure was connected to a pressure transducer (TSD 104A, Biopac Systems Inc., Goleta, CA, USA) coupled to a computer-based data acquisition system (MP100, Biopac Systems Inc., Goleta, CA, USA) to continuously record pulsate arterial pressure. The animals were maintained under anesthesia and were warmed with a heated pad.
(§2) The mechanism subserving the cardiovascular responses to i.v. injections of increasing doses of the different BK agonists was first investigated in animals pretreated with the ACE inhibitor, enalaprilat. In these experiments, the animals were separated in five groups depending on the agonist tested. Enalaprilat was intravenously administered as bolus (0.1 mg/kg, 0.1 ml) following a 10 min period of baseline measurements of HR and blood pressure. Fifteen minutes later, dose-response curves to BK, BK-His-Leu, B-9972, BK-Arg, or BK-Ala-Pro were obtained in the indicated group of rats, as described above. Further experiments were made in rats pretreated with the Plummer’s inhibitor (mercaptomethyl- 3-guanidinoethylthiopropanoic acid), a high affinity inhibitor of arginine carboxypeptidases that is an arginine analog ([Plummer and Ryan, 1981]). In these experiments, the inhibitor was intravenously administered as bolus (0.75 mg/kg, 0.1 ml) followed 15 min later by the i.v. injection of increasing doses of BK or BK-Arg, in two different groups of rats. […] In these experiments, icatibant was intravenously administered as bolus (10 μg/kg, 0.1 ml) 15 min before the i.v. injection of increasing doses of BK, BK-His-Leu, B-9972, BK-Ala-Pro, or BK-Arg, in separated groups of rats, as above. The doses of different inhibitors were based on preliminary experiments and from studies performed by others ([Ishida et al., 1989]; [Wirth et al., 1991]; [Muto et al., 2003]), with deliberate low dosing for peptidase inhibitors for the sake of their selectivity of action. Whether a component of BK hemodynamic effects is mediated by the B1R was assessed in rats pre-treated with the specific B1R antagonist, B-9858 (20 μg/kg, 0.1 ml). B-9858 (Lys-Lys-[Hyp^3, Igl^5, D-Igl^7, Oic^8]des-Arg^9-BK) is a selective B1R antagonist ([Leeb-Lundberg et al., 2005]) that has been found active at the rat B1R ([Scott et al., 2003]).
Baseline values for MAP and HR measured in the untreated control group or 15 min after i.v. pretreatment with enalaprilat, icatibant or the Plummer’s inhibitor are shown in Table 2. While no significant changes in basal values of MAP were noted between the enalaprilat and Plummer’s inhibitor pretreated groups, a slight but significant reduction in basal MAP was found between the icatibant pretreated group and the control group. Furthermore, slight but significant reductions in basal HR were noted between the icatibant and Plummer’s inhibitor pretreated groups and the control group, while a small significant increase in basal HR was found between the enalaprilat pretreated groups and the control group.

The subject of assay [2] is anesthetized rats. Put plainly: In vivo vascular reactivity: hypotensive (MAP) response to i.v. bolus injections. The settings on record: for doses at which the decrease in MAP was significant compared to vehicle: doses tested 0.025-6.4 μg/kg, untreated anesthetized rats, Dunnett's test. Details: species or system rat. Here is the method:
(§3) At the end of the acclimation period, the rats were anesthetized with sodium pentobarbital (50 mg kg^-1, i.p., supplemented as required) and had two separate catheters implanted; one into the right jugular vein [for intravenous (i.v.) injection] and the other into the left femoral artery (for direct measurement of blood pressure and heart rate (HR). In some experiments, a pulsed Doppler flow probe ([Haywood et al., 1981]) was also implanted around the distal abdominal aorta (below the ileocecal artery) through a midline abdominal incision to monitor changes in hindquarter hemodynamic, according to the method developed by [Gardiner and Bennett (1988)] and as previously described ([Bachelard et al., 1992b]). The probes wires were connected to a pulsed Doppler monitoring system (VF-1 Doppler flowmeter; Crystal Biotech, Holliston, MA, USA) modified to operate with a pulse repetition frequency of 125 kHz ([Gardiner et al., 1990]) and fitted with HVPD-20 modules. The mean Doppler signal represents the average hindquarter blood flow velocity, a relative index of blood flow. […] Experiments started at least 30 min following the end of surgery in anesthetized rats.
as §1
The experiments were initiated after allowing at least 20 min for stabilization. Then, baseline measurements of HR and phasic and mean arterial blood pressure (MAP) were made over a period of 10 min. […] Peptides were dissolved in isotonic saline (0.9% NaCl) containing 0.1% BSA to prevent the adsorption of peptide to the glassware and plastic surfaces. All i.v. injections were given as 100 μl boluses which were washed in with a further 100 μl of saline (the dead space of the catheter). Only one peptide was tested per group of rats and each injection started with saline-BSA 0.1% followed by the lowest dose of peptide. The next dose was administered once all recorded cardiovascular parameters had returned to baseline after the previous injection (usually 2–10 min). At the end of the experiments each animal was euthanized with an overdose of sodium pentobarbitone (240 mg/kg, i.v.).
as §2, with “The doses of different inhibitors were based on preliminary experiments and from studies performed by others ([Ishida et al., 1989]; [Wirth et al., 1991]; [Muto et al., 2003]), with deliberate low dosing for peptidase inhibitors for the sake of their selectivity of action. Whether a component of BK hemodynamic effects is mediated by the B1R was assessed in rats pre-treated with the specific B1R antagonist, B-9858 (20 μg/kg, 0.1 ml). B-9858 (Lys-Lys-[Hyp^3, Igl^5, D-Igl^7, Oic^8]des-Arg^9-BK) is a selective B1R antagonist ([Leeb-Lundberg et al., 2005]) that has been found active at the rat B1R ([Scott et al., 2003]).” left out

The subject of assay [3] is anesthetized rats. Briefly: In vivo vascular reactivity: heart rate changes after i.v. bolus injections. Also noted: species or system rat. As to the method: as §3, with “rats. […]” for “rats.”
The experiments were initiated after allowing at least 20 min for stabilization. […] The next dose was administered once all recorded cardiovascular parameters had returned to baseline after the previous injection (usually 2–10 min). […]

[4] abbreviates: icatibant 10 μg/kg i.v. 15 min before, agonist 0.025-6.4 μg/kg i.v.

Regarding `C[C@H](N[C@@H](CCc1ccccc1)C(=O)O)C(=O)N1CCC[C@H]1C(=O)O` [Enalaprilat, enalaprilat], the “Basal mean arterial blood pressure (MAP) after pre-treatment” value (from here on “Basal mean arterial blood pressure (MAP)”) in assay [1] (control 103.1 ± 1.8) amounted to 99.2 ± 1.5. In addition, the “Basal heart rate (HR) after pre-treatment” value (“Basal heart rate (HR)” below) in assay [1] (control 393 ± 6, in bpm) is given as 416 ± 6ˆ*.

As for “D-Arg-[Hyp^3, Thi^5, D-Tic^7, Oic^8] bradykinin [Icatibant]”, the “Basal mean arterial blood pressure (MAP)” value in assay [1] (control 103.1 ± 1.8, in mmHg) is listed as 95.3 ± 1.6ˆ*. Moreover, the “Basal heart rate (HR)” value in assay [1] (control 393 ± 6, in bpm) is listed as 356 ± 8ˆ**.

On to “D-Arg-[Hyp^3,Igl^5,Oic^7,Igl^8]-BK [B-9972]”, for which the “effect of enalaprilat pretreatment on the dose-dependent hypotensive response” value in assay [2] (enalaprilat 0.1 mg/kg i.v. 15 min before, agonist 0.025-6.4 μg/kg i.v.) is reported as “not affected”. For the same compound, the “half-recovery time of hypotensive episodes compared with a similar dose of BK” value in assay [2] (i.v. bolus, for B-9972 the highest dose) is “significantly longer”. Also, in assay [2] (icatibant 10 μg/kg i.v. 15 min before), the “reduction of apparent hypotensive potency by icatibant” value was “about 10 fold”. The “effect of icatibant pretreatment on the hypotensive response” value in assay [2] (setting [4]) was “significantly abated”.

Consider “bradykinin (RPPGFSPFR; Bradykinin; UniProt P01042 381-389, looked up) [BK]”, for which the “effect of B-9858 (B1R antagonist) pretreatment on the hypotensive response” value in assay [2] (B-9858 20 μg/kg i.v.) is “did not significantly modify”. Moreover, the “effect of Plummer's inhibitor pretreatment on the hypotensive response” value in assay [2] (Plummer's inhibitor 0.75 mg/kg i.v. 15 min before) is reported as “no effect”. In addition, the “potentiation of the hypotensive effect by enalaprilat pretreatment” value in assay [2] (enalaprilat 0.1 mg/kg i.v. 15 min before) is roughly 15 fold. For the same compound, the “doses at which the decrease in MAP was significant compared to vehicle” value in assay [2] (i.v. bolus) was no less than 0.4 µg/kg. Further, in assay [2] (setting [4]), the “effect of icatibant pretreatment on the hypotensive response” value was “significantly and extensively inhibited”. Besides, the “dose at which a significant bradycardia preceded tachycardia” value in assay [3] stood at 6.4 µg/kg. Also, the “doses at which tachycardia accompanied the hypotensive response” value in assay [3] (doses tested 0.025-6.4 μg/kg, compared with vehicle) is no less than 0.4 µg/kg.

With `N=C(N)NCCSCC(CS)C(=O)O` (stereo not drawn) [Plummer’s inhibitor, mercaptomethyl-3-guanidinoethylthiopropanoic acid], the “Basal mean arterial blood pressure (MAP)” value in assay [1] (control 103.1 ± 1.8) is listed as 107.1 ± 4.7. In assay [1] (control 393 ± 6, in bpm), the “Basal heart rate (HR)” value was 353 ± 17ˆ*.

Regarding des-Arg^9-BK, the “effect on MAP at the dose of 0.025 μg/kg” value in assay [2] (i.v. bolus, compared to vehicle, n = 9) is reported as “no significant effect”. In assay [2] (i.v. bolus), the “doses at which the decrease in MAP was significant compared to vehicle” value is no less than 0.1 µg/kg.

For the compound “Lys-Lys-[Hyp^3, Igl^5, D-Igl^7, Oic^8]des-Arg^9-BK [B-9858]”, the “Basal mean arterial blood pressure (MAP)” value in assay [1] (control 103.1 ± 1.8) turned out to be 103.3 ± 6.2. The “Basal heart rate (HR)” value in assay [1] (control 393 ± 6, in bpm (unit assumed)) turned out to be 397 ± 11.
